Assay results from patent US12344603B2 (Genentech, Inc., priority 2020, dated 2025).
Where a name gives a salt, the structure may show the parent alone.

target: IRE1α (Homo sapiens (Human), UniProt O75460, D688N); assay: IRE1α TR-FRET competition binding assay (IRE1α HTRF); conditions: TR-FRET competition binding to kinase domain of IRE1α
In short: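 Kinase domain (0.25 nM) pre-bound to 2 nM Eu anti-His antibody for 1 h at 4° C in HEPES pH 7.5/MgCl2/Brij 35/DTT/gamma globulin buffer, then mixed with compounds and 2 nM Alexa 647 ATP-competitive probe. 1 h at room temperature; probe displacement read as TR-FRET (Ex 347 nm, Em 665/615 nm).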

Sequence of IRE1α (O75460 547-977 D688N): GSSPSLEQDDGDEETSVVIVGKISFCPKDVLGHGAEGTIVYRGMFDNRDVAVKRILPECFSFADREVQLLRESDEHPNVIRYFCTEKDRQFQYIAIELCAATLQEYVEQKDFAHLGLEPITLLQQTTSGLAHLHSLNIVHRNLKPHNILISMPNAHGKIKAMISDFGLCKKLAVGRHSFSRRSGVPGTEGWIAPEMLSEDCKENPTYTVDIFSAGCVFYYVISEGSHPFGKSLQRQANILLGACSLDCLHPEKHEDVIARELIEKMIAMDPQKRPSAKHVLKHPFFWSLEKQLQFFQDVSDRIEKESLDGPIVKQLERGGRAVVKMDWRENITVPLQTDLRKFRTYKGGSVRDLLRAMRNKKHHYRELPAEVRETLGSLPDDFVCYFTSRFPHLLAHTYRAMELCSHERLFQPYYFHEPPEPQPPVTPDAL

| Structure (SMILES) | IC50 [pM] |
| --- | --- |
| CCCS(=O)(=O)Nc1ccc(-c2nc3cnc(N[C@H]4CC[C@H](N(C)C)CC4)nc3n(C(C)C)c2=O)c(F)c1 [Compound 161, N-(4-(2-(((1r,4r)-4-(Dimethylamino)cyclohexyl)amino)-8-isopropyl-7-oxo-7,8-dihydropteridin-6-yl)-3-fluorophenyl)propane-1-sulfonamide] | 180 |
| CC(C)n1c(=O)c(-c2ccc(NS(=O)(=O)CC3CC34CC4)c(F)c2)nc2cnc(N[C@H]3CC[C@H](N(C)C)CC3)nc21 (stereo partly shown) [Example 256, N-[4-[2-[[4-(Dimethylamino)cyclohexyl]amino]-8-isopropyl-7-oxo-pteridin-6-yl]-2-fluoro-phenyl]-1-spiro[2.2]pentan-2-yl-methanesulfonamide] | 300 |
| CC(C)n1c(=O)c(-c2ccc(NS(=O)(=O)CCC(C)(F)F)c(F)c2)nc2cnc(N[C@@H]3CNC[C@@H](F)C3)nc21 [Compound 84, 3,3-Difluoro-N-[2-fluoro-4-[2-[[(3S,5S)-5-fluoro-3-piperidyl]amino]-8-isopropyl-7-oxo-pteridin-6-yl]phenyl]butane-1-sulfonamide] | 400 |
| CC(C)n1c(=O)c(-c2ccc(NS(=O)(=O)CCC(F)(F)F)c(F)c2)cc2cnc(N[C@H]3CC[C@H](N4CC5(COC5)C4)CC3)nc21 [Compound 212, N-(4-(2-(((1,4-trans)-4-(2-Oxa-6-azaspiro[3.3]heptan-6-yl)cyclohexyl)amino)-8-isopropyl-7-oxo-7,8-dihydropyrido[2,3-d]pyrimidin-6-yl)-2-fluorophenyl)-3,3,3-trifluoropropane-1-sulfonamide] | 240 |
| Cn1c(=O)c(-c2cc(F)c(NS(=O)(=O)CCC(F)(F)F)c3ccccc23)cc2cnc(N[C@H]3CCCNC3)nc21 [Compound 7, (S)-3,3,3-Trifluoro-N-(2-fluoro-4-(8-methyl-7-oxo-2-(piperidin-3-ylamino)-7,8-dihydropyrido[2,3-d]pyrimidin-6-yl)naphthalen-1-yl)propane-1-sulfonamide] | 5900 |
| COCCN1CC2(CCC(Nc3ncc4cc(-c5ccc(NS(=O)(=O)CCC(F)(F)F)c(F)c5)c(=O)n(C(C)C)c4n3)CC2)C1 [Example 234, 3,3,3-Trifluoro-N-(2-fluoro-4-(8-isopropyl-2-((2-(2-methoxyethyl)-2-azaspiro[3.5]nonan-7-yl)amino)-7-oxo-7,8-dihydropyrido[2,3-d]pyrimidin-6-yl)phenyl)propane-1-sulfonamide] | 200 |
| CC(C)n1c(=O)c(-c2cc(F)c(NS(=O)(=O)Cc3cccc(C#N)c3)c(F)c2F)cc2cnc(N[C@@H]3CNC[C@@H](F)C3)nc21 [Compound 30, 1-(3-Cyanophenyl)-N-(2,3,6-trifluoro-4-(2-(((3S,5S)-5-fluoropiperidin-3-yl)amino)-8-isopropyl-7-oxo-7,8-dihydropyrido[2,3-d]pyrimidin-6-yl)phenyl)methanesulfonamide] | 210 |
| CC(C)n1c(=O)c(-c2ccc(NS(=O)(=O)CCN3CC(F)(F)C3)c(F)c2)nc2cnc(N[C@H]3CC[C@H](N(C)C)CC3)nc21 [Compound 182, 2-(3,3-Difluoroazetidin-1-yl)-N-(4-(2-(((1r,4r)-4-(dimethylamino)cyclohexyl)amino)-8-isopropyl-7-oxo-7,8-dihydropteridin-6-yl)-2-fluorophenyl)ethane-1-sulfonamide] | 870 |
| CCn1c(=O)c(-c2cc(F)c(NS(=O)(=O)Cc3ccc(C#N)cc3)c(F)c2F)cc2cnc(N[C@@H]3CNC[C@@H](F)C3)nc21 [Compound 47, 1-(4-cyanophenyl)-N-(4-(8-ethyl-2-(((3S,5S)-5-fluoropiperidin-3-yl)amino)-7-oxo-7,8-dihydropyrido[2,3-d]pyrimidin-6-yl)-2,3,6-trifluorophenyl)methanesulfonamide] | 370 |
| CC(C)n1c(=O)c(-c2ccc(NS(=O)(=O)CC3CC(F)(F)C3)c(F)c2)nc2cnc(N[C@H]3CC[C@H](N(C)C)CC3)nc21 [Example 279, 1-(3,3-Difluorocyclobutyl)-N-[4-[2-[[4-(dimethylamino)cyclohexyl]amino]-8-isopropyl-7-oxo-pteridin-6-yl]-2-fluoro-phenyl]methanesulfonamide] | 300 |
| CC(C)n1c(=O)c(-c2ccc(NS(=O)(=O)CC3CCC3(F)F)c(F)c2)cc2cnc(N[C@H]3CC[C@H](N(C)C)CC3)nc21 (single isomer, unassigned) [Compound 153B, 1-(2,2-Difluorocyclobutyl)-N-(4-(2-(((1r,4r)-4-(dimethylamino)cyclohexyl)amino)-8-isopropyl-7-oxo-7,8-dihydropyrido[2,3-d]pyrimidin-6-yl)-2-fluorophenyl)methanesulfonamide] | 160 |
| CC(C)n1c(=O)c(-c2ccc(NS(=O)(=O)c3ccccc3)nc2)cc2cnc(N[C@H]3CC[C@H](N(C)C)CC3)nc21 [Compound 106, N-(5-(2-(((1r,4r)-4-(Dimethylamino)cyclohexyl)amino)-8-isopropyl-7-oxo-7,8-dihydropyrido[2,3-d]pyrimidin-6-yl)pyridin-2-yl)benzenesulfonamide] | 150 |
| CC(C)n1c(=O)c(-c2ccc(NS(=O)(=O)CCC(F)(F)F)c(F)c2)nc2cnc(N[C@@H]3CNC[C@H](CF)C3)nc21 [Compound 76, 3,3,3-Trifluoro-N-[2-fluoro-4-[2-[[(3S,5R)-5-(fluoromethyl)-3-piperidyl]amino]-8-isopropyl-7-oxo-pteridin-6-yl]phenyl]propane-1-sulfonamide] | 900 |
| CC(C)n1c(=O)c(-c2ccc(NS(=O)(=O)CCC(F)(F)F)c(F)c2)cc2cnc(N[C@H]3CCC[C@H](N)C3)nc21 [Compound 103, N-(4-(2-(((1S,3S)-3-Aminocyclohexyl)amino)-8-isopropyl-7-oxo-7,8-dihydropyrido[2,3-d]pyrimidin-6-yl)-2-fluorophenyl)-3,3,3-trifluoropropane-1-sulfonamide] | 26000 |
| CCC(F)(F)CS(=O)(=O)Nc1ccc(-c2nc3cnc(N[C@H]4CC[C@H](N(C)C)CC4)nc3n(C(C)C)c2=O)cc1F [Compound 165, N-(4-(2-(((1r,4r)-4-(Dimethylamino)cyclohexyl)amino)-8-isopropyl-7-oxo-7,8-dihydropteridin-6-yl)-2-fluorophenyl)-2,2-difluorobutane-1-sulfonamide hydrochloride] | 100 |
| CC(C)n1c(=O)c(-c2cc(F)c(NS(=O)(=O)CCC(F)(F)F)c(F)c2F)cc2cnc(N[C@H]3CC[C@H](N(C)C)CC3)nc21 [Compound 25, N-(4-(2-(((1r,4r)-4-(Dimethylamino)cyclohexyl)amino)-8-isopropyl-7-oxo-7,8-dihydropyrido[2,3-d]pyrimidin-6-yl)-2,3,6-trifluorophenyl)-3,3,3-trifluoropropane-1-sulfonamide] | 330 |
| CC(C)n1c(=O)c(-c2ccc(NS(=O)(=O)CCC(F)(F)F)cn2)cc2cnc(N[C@H]3CC[C@H](N(C)C)[C@H](F)C3)nc21 [Example 223, N-(6-(2-(((1S,3R,4S)-4-(Dimethylamino)-3-fluorocyclohexyl)amino)-8-isopropyl-7-oxo-7,8-dihydropyrido[2,3-d]pyrimidin-6-yl)pyridin-3-yl)-3,3,3-trifluoropropane-1-sulfonamide] | 500 |
| CC(C)n1c(=O)c(-c2ccc(NS(=O)(=O)CCC(F)(F)F)cn2)cc2cnc(N[C@H]3CC[C@H](N(C)C)CC3)nc21 [Example 218, N-(6-(2-(((1r,4r)-4-(dimethylamino)cyclo-hexyl)amino)-8-isopropyl-7-oxo-7,8-dihydropyrido[2,3-d]-pyrimidin-6-yl)pyridin-3-yl)-3,3,3-trifluoro-propane-1-sulfonamide] | 200 |
| Cc1nc(NS(=O)(=O)c2ccccc2F)ccc1-c1nc2cnc(N[C@H]3CC[C@H](N(C)C)CC3)nc2n(C(C)C)c1=O [Example 253, N-[5-[2-[[4-(Dimethylamino)cyclohexyl]amino]-8-isopropyl-7-oxo-pteridin-6-yl]-6-methyl-2-pyridyl]-2-fluoro-benzenesulfonamide] | 300 |
| CC(C)n1c(=O)c(-c2cc(NS(=O)(=O)CCC(F)(F)F)nn2C)cc2cnc(N[C@@H]3CNC[C@@H](F)C3)nc21 [Compound 85] | 16000 |
| CC(C)n1c(=O)c(-c2ccc(NS(=O)(=O)c3ccccc3Cl)nc2)nc2cnc(N[C@H]3CC[C@H](N(C)C)CC3)nc21 [Compound 178, 2-Chloro-N-(5-(2-(((1r,4r)-4-(dimethylamino)cyclohexyl)amino)-8-isopropyl-7-oxo-7,8-dihydropteridin-6-yl)pyridin-2-yl)benzenesulfonamide] | 260 |
| CC(C)n1c(=O)c(-c2ccc(NS(=O)(=O)CCC(F)(F)F)c(F)c2)cc2cnc(N[C@H]3CCC[C@@H](N(C)C)C3)nc21 [Compound 114, N-(4-(2-(((1S,3R)-3-(Dimethylamino)cyclohexyl)amino)-8-isopropyl-7-oxo-7,8-dihydropyrido[2,3-d]pyrimidin-6-yl)-2-fluorophenyl)-3,3,3-trifluoropropane-1-sulfonamide] | 180000 |
| CC(C)n1c(=O)c(-c2ccc(NS(=O)(=O)CCC(F)(F)F)c(F)c2)cc2cnc(N[C@@H]3CC[C@@H](N(C)C)[C@H](O)C3)nc21 [Example 227, N-(4-(2-(((1R,3R,4R)-4-(Dimethylamino)-3-hydroxycyclohexyl)amino)-8-isopropyl-7-oxo-7,8-dihydropyrido[2,3-d]pyrimidin-6-yl)-2-fluorophenyl)-3,3,3-trifluoropropane-1-sulfonamide] | 300 |
| CCC(C)n1c(=O)c(-c2ccc(NS(=O)(=O)Cc3ccccc3F)c(F)c2)cc2cnc(N[C@@H]3CNC[C@@H](F)C3)nc21 (single isomer, unassigned) [Compound 202A, hydrochloride] | 260 |
| CC(C)n1c(=O)c(-c2ccc(NS(=O)(=O)Cc3ccccc3F)cn2)cc2cnc(N[C@H]3CC[C@H](N(C)C)CC3)nc21 [Compound 94, N-(6-(2-(((1r,4r)-4-(Dimethylamino)cyclohexyl)amino)-8-isopropyl-7-oxo-7,8-dihydropyrido[2,3-d]pyrimidin-6-yl)pyridin-3-yl)-1-(2-fluorophenyl)methanesulfonamide] | 270 |
